# Laboratory results published in US12029728B2, “Small molecules with anti-protozoan activity” (New Mexico Tech University Research Park Corporation, priority 2018, dated 2024).
# What was measured:
# [1] = system: T. cruzi-infected VERO cells; experiment: Treatment of T. cruzi-infected VERO cells, confocal microscopy; assay type: cell-based, Trypanosoma cruzi; conditions: 5 μM, 5 days
# Description: 2×10^4 VERO cells were plated in individual confocal dishes and allowed to adhere for 16 hours at 37° C. […] The T. cruzi-infected dishes were incubated with ˜2×10^6 T. cruzi/mL for 24 hours at 37° C. to allow for internalization of parasites. T. cruzi parasites expressed tdTomato, which allowed for visualization of parasites within cells. After the 24-hour T. cruzi incubation period, extracellular parasites were removed from culture dishes. The cells were washed 3 times with cell culture media (10% fetal bovine serum; 1% penicillin/streptomycin). Designated plates were then incubated with 5 μM Compound 2 or 5 μM Compound 7 for 5 days at 37° C. Cells were then fixed in 2% paraformaldehyde and tdTomato fluorescence in cells was assessed via confocal microscopy.
# [2] = system: T. cruzi amastigotes and trypomastigotes; experiment: Viability of tdTomato T. cruzi amastigotes and trypomastigotes, fluorescence; assay type: cell-based, Trypanosoma cruzi; conditions: 25 μM, 48 hours at 37° C.
# Description: The viability of a mixture of T. cruzi amastigotes and trypomastigotes after exposure to 25 μM of the compounds of the disclosure was determined. 2×10^5 parasites/100 μL were plated in 96-well plates. Parasites expressing tdTomato were used to assess parasite viability using fluorescence measurements. Parasites were incubated with 25 μM of the compounds of the disclosure for 48 hours at 37° C. After the incubation period, the viability of amastigotes and trypomastigotes was assessed by measuring the fluorescence intensity at 510 nm-590 nm using a Tecan plate reader, where the presence of fluorescence indicated viable amastigotes/trypomastigotes.
# [3] = system: T. cruzi-infected ARPE cells; experiment: Treatment of T. cruzi-infected ARPE cells, imaging; assay type: cell-based, Trypanosoma cruzi
# Description: Four confocal dishes were prepared with 10,000 ARPE cells, which were adhered overnight at 37° C. The four dishes were ARPE control cells, non-infected but 5 μM Compound 2-treated cells, non-treated but infected cells, and infected cells treated with 5 μM Compound 2. For the infected dishes, ARPE media was removed and replaced with 2 mL of infectious amastigotes and trypomastigotes from the ARPE passaged plate. The dishes were then incubated for 2 hours at 37° C. The treated dishes were incubated with 5 μM Compound 2 for 5 days at 37° C., while untreated dishes were incubated in fresh media without Compound 2 for 5 days at 37° C. After the 5-day period, cells were washed 3 times in ARPE media and fixed with 1 mL 4% paraformaldehyde. Cells were visualized using an EVOS cell imaging system. Amastigotes appeared as small, dense, and mostly birefringent in images.
# The experiment above was repeated using 1 μM Compound 2.
# Four confocal dishes with 10,000 ARPE cells were prepared and adhered overnight at 37° C. The four dishes were: 1) ARPE control cells; 2) non-infected cells treated with 1 μM Compound 2; 3) untreated infected cells; and 4) T. cruzi-infected cells treated with 1 μM Compound 2. For the infected dishes, ARPE media was removed and replaced with 2 mL of infectious amastigotes and trypomastigotes expressing tdTomato (from ARPE passaged plate). The dishes were then incubated overnight for 7 days at 37° C. The untreated dishes were incubated in fresh media without Compound 2 for 7 days at 37° C. After the 7-day incubation period, cells were washed 3 times in ARPE media and fixed with 1 mL 4% paraformaldehyde. tdTomato fluorescence, which is indicative of viable T. cruzi, was then observed via fluorescence microscopy.
# ARPE cells were plated in confocal dishes (20,000 cells per dish) and incubated overnight at 37° C. Cells were infected with T. cruzi by incubating cells with T. cruzi amastigotes and trypomastigotes expressing tdTomato (˜2×10^5 cells in total) for 24 hours at 37° C. Uninfected cells served as controls. Following the T. cruzi incubation period, extracellular parasites were removed, and the medium was replaced with DMEM/F12 culture media with or without 1 μM Compound 2. The cells were incubated further for 24 hours at 37° C. Cells were then treated two more times with fresh DMEM/F12 culture media with or without 1 μM Compound 2 and incubated for 24 hours at 37° C. Following fixation of cells in 4% paraformaldehyde, plates were imaged for tdTomato fluorescence, which is indicative of viable T. cruzi, such that the effects of repeated Compound 2 treatment could be compared to a single treatment with Compound 2.
# ARPE cells were plated in confocal dishes (20,000 cells per dish) and incubated overnight at 37° C. Cells were infected with T. cruzi by incubating cells with T. cruzi amastigotes and trypomastigotes expressing tdTomato (˜2×10^5 cells in total) for 24 hours at 37° C. before washing dishes three times with DMEM/F12 culture media. Uninfected plates served as controls. The dishes were then treated with 2 μM Compound 2 or left untreated as a control and incubated further for 5 days at 37° C. The treated dish received a single treatment of Compound 2 on day 1. Dishes were washed twice with DMEM/F12 media and fixed in 4% paraformaldehyde before being imaged using confocal microscopy. […] The other Compound 2 dishes that were not incubated with T. cruzi a second time were used as controls. Following fixation of cells in 4% paraformaldehyde, tdTomato fluorescence of the cells was assessed using confocal microscopy.
# ARPE cells were plated in confocal dishes (20,000 cells per dish) and incubated overnight at 37° C. Dishes were incubated with T. cruzi amastigotes and trypomastigotes expressing tdTomato (˜2×10^5 cells) for 48 hours at 37° C. Untreated cells served as controls. Cells were then washed 3 times with cell medium, treated with 5 μM Compound 2 or left untreated as a control and incubated further for 2 days at 37° C. […]
# L. major-infected MDMs = experiment: L. major-infected human MDMs, quantitative cell bioimaging; assay type: cell-based, Leishmania major; conditions: 2 μM or 20 μM
# Description: Human MDMs were cultured on glass slides and incubated with metacyclic L. major for 24 hours to allow for internalization of parasites. After the 24-hour L. major incubation period, extracellular parasites were removed from the culture. 24 hours after the removal of extracellular parasites, infected cells were treated with vehicle control (DMSO), 5 μM MTF, 1 μM Compound 2, 5 μM Compound 2, 10 μM Compound 2, 2 μM Compound 7, or 20 μM Compound 7. Following treatment, the cells were fixed with 2% paraformaldehyde and subsequently stained with the DNA stain Hoechst 33342. The stained cover slips were transferred onto glass slides, and quantitative cell bioimaging was utilized to determine the number of amastigotes per 500 cells using a CellInsight CX5 High Content screening platform.
# T. cruzi epimastigotes = experiment: T. cruzi epimastigote toxicity, visually assessed; assay type: cell-based, Trypanosoma cruzi; conditions: 48 hours at 30° C.
# Description: A 1:20 working dilution of T. cruzi epimastigotes was prepared in LIT1029 medium from a saturated (˜4×10^6 cells/mL) culture. 100 μL of the 1:20 working dilution was plated, and the epimastigotes were incubated with a compound of the disclosure at varying concentrations for 48 hours at 30° C. Following T. cruzi epimastigote treatment with a compound of the disclosure, the toxicity of compounds towards T. cruzi epimastigotes was visually assessed.
# PBMC cells = experiment: MTT toxicity assay on PBMC / monocyte-derived macrophages; assay type: cell-based, Human; conditions: 5 (μM) MTF, 48 hours
# Description: Human peripheral blood mononuclear cells (PBMC) were plated onto polylysine-coated glass slides in 24-well plates and allowed to differentiate towards monocyte-derived macrophages (MDMs). Non-adherent cells were removed 48-hours post plating. Adherent monocytes were left to further differentiate for another 48 hours to MDMs. Following the completion of the differentiation period, MDMs were treated with vehicle control (DMSO), […], or 10 μM of Compound 1, Compound 3, Compound 4, Compound 6, Compound 7, Compound 8, Compound 9, Compound 10, or Compound 11 for 48 hours.
SMILES,T. cruzi infection in VERO cells [1],toxicity to T. cruzi amastigotes and trypomastigotes [2],"parasitic burden ([3]; 1 μM, 3 days)","protection from a recurring infection ([3]; 1 μM, 3 days)","T. cruzi in ARPE cells (CherryTomato fluorescence) ([3]; 2 μM, two days)","T. cruzi infections in ARPE cells ([3]; 2.5 μM, 3 days)","T. cruzi in ARPE cells ([3]; 5 μM, 3 days)","intracellular T. cruzi and re-infection ([3]; single dose of 2 μM, 2 days)",number of parasites per cell (L. major-infected MDMs),Concentration at which T. cruzi epimastigote death is greater than or equal to ~99% (T. cruzi epimastigotes) [µM],"killing at 100 µM (T. cruzi epimastigotes; Trypanosoma cruzi, epimastigotes, 100 μM, read-out: T. cruzi death @ 100 μM) [%]",toxicity to PBMC cells (MTT) (PBMC cells)
"Cn1c(-c2ccc3ccccc3c2)c(C(C(=O)NO)c2ccccc2)c2ccccc21 (stereo not drawn) [Compound 7, N-hydroxy-2-(1-methyl-2-(naphthalen-2-yl)-1H-indol-3-yl)-2-phenylacetamide]",eradication of T. cruzi infection,most toxic,decreased parasitic burden,not protected from a recurring infection,eradicated T. cruzi,minimal,eradicated,killed intracellular T. cruzi and protected the cells from re-infection,decreased the number of parasites per cell,≥100,100,
"CCCCCCCCCCCCCCCCOP(=O)([O-])OCC[N+](C)(C)C [MTF, miltefosine]",,,,,,,,,,,,not toxic
